Experimental data: patent publication US10966423B2, “Anti-microbial agent comprising xanthohumol and the use thereof in food products” (Purac Biochem B.V., priority 2015, dated 2021)
In brackets after ≈: the same amount, converted by molar mass. Where two headings read alike, the source gives them in different places.

How the values were obtained:
Assay type in all cases: cell-based
[1] = test system: lactic acid bacteria (L. curvatus, 3×L. plantarum and L. mesenteroides); assay: shelf life of sausages inoculated with lactic acid bacteria
Experimental: Sausages were produced according to the following procedure. The ingredients defined as weight percentages in Table 5 were used for the preparation of the sausage. Xanthoflav was used as such, without a preparation step such as applied in Example 1.
First the meat was shredded, and salt, tri polyphosphate and half of the water was added. After mixing very well, the other ingredients were added. The meat dough was put in a cook crimp bag and vacuum sealed. After sealing the bags were canned. The sausages were cooked in a cooking cabinet for 120 minutes at 75° C. and afterwards cooled down to 15° C. […]
In a first step an inoculum was prepared as follows. Cultures of lactic acid bacteria (L. curvatus, 3×L. plantarum and L. mesenteroides) are started from plate and incubated overnight at 30° C. in screw-capped tubes (100×16 mm) containing 10 ml MRS broth.
Sausages were inoculated to a final level of about 1000 (10^3) CFU per g product. The sausage was inoculated with 1% Inoculum (approximately 5 ml Inoculum per 500 gram ground meat). […]
Fifty μl of the homogenate or dilution was subsequently plated on MRS agar using an Eddyjet type 1.23 spiral plater (IUL Instruments, Barcelona, Spain). […] The colonies were counted with the Acolyte Supercount automatic colony counter (Synoptics, Cambridge, UK) using the Synoptics software package. […]

Penicillium roquefortii [2] = assay: visible growth of mould hyphae in MEA broth; conditions: MEA broth pH 3.5, 14 days, 25° C., 10^4 spores per ml; xanthohumol 0.008 wt %, propionate 0.085 wt %
Experimental: (§1) Two molds, Aspergillus Niger and Penicillium roquefortii were tested on the combinatory effect of xanthohumol in combination with propionate. MEA broth was inoculated with spores of the fungi to a concentration of 10^4 spores per ml. In this example use has been made of the stock solution of xanthohumol as has been described in example 1 above. 4 ml of said stock solution was added to 96 ml of broth to obtain a 0.008% w/w solution in broth.
(§2) Propionate was added to an end concentration of 0.085% of propionate in broth. Also a solution was made with 0.008% w/w of xanthohumol and 0.085% of propionate in broth. As a control experiment broth without antimicrobial components was used. The pH of all media was set to 3.5. After 14 days of incubation at 25° C., the broth was inspected for visible growth of mould hyphae.

Aspergillus Niger = assay: visible growth of mould hyphae in MEA broth; conditions: MEA broth pH 3.5, 14 days, 25° C., 10^4 spores per ml; xanthohumol 0.008 wt %, propionate 0.085 wt %
Experimental: as §1, §2

Aspergillus flavus = assay: mold outgrowth (OD) in semi-solid MEA agar, xanthohumol/calcium propionate gradient; conditions: FIG. 4; day 13, pH 6; calcium propionate 0-0.5%, xanthohumol 0-0.00195%
Experimental: (§3) Five molds, Penicillium roquefortii, Aspergillus flavus, Fusarium oxysporum, Paecilomyces variotii, and Mucor plumbeus, were tested on the combinatory effect of xanthohumol combined with calcium propionate. In this example use has been made of a stock solution of 0.52% w/w XanthoFlav (equivalent to 0.0104% w/w xanthohumol) prepared in a similar manner as that described in example 1 above, as well as a stock solution of calcium propionate at 1.6% w/w. A modified semi-solid MEA agar was prepared by mixing 50 g of Malt Extract broth (Oxoid) with 7.5 g of Bacteriological Agar No. 1 (Oxoid) to create a 2× reduced agar MEA. This was autoclaved at 120° C. for 15 minutes. Bottles of this MEA were held at 50° C. until ready for inoculation, at which point they were inoculated with a single strain of the above listed molds at approximately 10^4 spores per ml. This level of inoculation ensures 500-1000 spores per well in the 96 well plate. All media was set to pH 6.
(§4) The 2×MEA was mixed with the stock solutions of xanthohumol, calcium propionate, and sterilized H2O as a diluent in 96 well plates using an automated plate filler to create a concentration gradient of calcium propionate ranging from 0% to 0.5% along one axis and xanthohumol from 0% to 0.00195% along the other axis. Wells containing 0% of both antimicrobials served as a control. This allowed for testing approximately 24 different combinations of the two antimicrobials on one plate. Each well contained 75 μL of inoculated 2× reduced agar MEA, 75 μL of a mix of antimicrobials/diluent, and was capped with 75 μL of paraffin oil after the agar had set. Ninety-six well plates were then sealed with an oxygen permeable membrane to prevent contamination of wells.
(§5) OD measurements were taken approximately once a day, and outgrowth (measured by an increase in OD) was tracked over time. Measurements at the final reading (day 13) were placed in a 3D graph to visualize the additive effects of the two antimicrobials as levels of each increased across the plate.

Penicillium roquefortii [3] = assay: as above; conditions: FIG. 1; day 13, pH 6; calcium propionate 0-0.5%, xanthohumol 0-0.00195%
Experimental: as §3, §4, §5

Fusarium oxysporum = assay: as above; conditions: FIG. 2; day 13, pH 6; calcium propionate 0-0.5%, xanthohumol 0-0.00195%
Experimental: as §3, §4, §5

Paecilomyces variotii = assay: as above; conditions: FIG. 3; day 13, pH 6; calcium propionate 0-0.5%, xanthohumol 0-0.00195%
Experimental: as §3, §4, §5

Mucor plumbeus = assay: as above; conditions: FIG. 5; day 13, pH 6; calcium propionate 0-0.5%, xanthohumol 0-0.00195%
Experimental: as §3, §4, §5

[4] = test system: Leuconostoc mesenteroides; assay: minimum inhibitory concentration on lactic acid bacteria, overnight in MRS medium; conditions: strain AR049, 30° C., 10^5 cfu/ml, read-out: MIC calculated to xanthohumol
Experimental: (§6) One part xanthohumol Xantho-Flav Extract (with 2% of xanthohumol) on diatomaceous earth is incubated with 9 parts of hot water at 100° C., boiling for <1 minute while vigorously shaking. After incubation, solid material is discarded. This way, a stock solution with 10% of Xanthoflav or about 0.2% xanthohumol (2 mg/ml) is obtained, which is used in the following examples.
(§7) For testing the anti-microbial activity a test composition comprising xanthohumol was applied. The test composition was prepared as follows. At the highest concentration 100 μl of the xanthohumol stock solution at 2 mg/ml in water (See Example 1) was added to 100 μl of 2 times concentrated MRS medium, providing a test composition comprising 1 mg/ml by weight xanthohumol in MRS medium.
(§8) Pre-cultures of test bacteria were cultured using standard techniques. Bacteria were cultured in MRS medium 48 hrs before the start of the experiments.
(§9) Five μl of the bacterium pre-cultures was brought in 200 μl of test medium (medium+component+water) and mixed with a concentration series of the test composition comprising xanthohumol. Final bacterium density at the start of the overnight experiment was 10^5 cfu/ml. Xanthohumol was tested up to a concentration of 0.01 mg/ml (based on an addition level of up to 0.05% w/w of Xanthoflav). Negative control was inoculated broth, positive control was inoculated MRS medium. Bacterium cultures were cultured overnight at 30° C., under constant shaking. After incubation, the minimum inhibitory concentration for each test organism was scored (Table 1).

Lactobacillus brevis = assay: as above; conditions: Levilactobacillus brevis, 10^5 cfu/ml, read-out: MIC calculated to xanthohumol
Experimental: as §6, §7, §8, §9

Lactobacillus farciminis = assay: as above; conditions: Companilactobacillus farciminis, strain AR053, 30° C., 10^5 cfu/ml, read-out: MIC calculated to xanthohumol
Experimental: as §6, §7, §8, §9

[5] = test system: Lactobacillus acidophilus; assay: as above; conditions: DSM20079, strain DSM 20079, 30° C., 10^5 cfu/ml, read-out: MIC calculated to xanthohumol
Experimental: as §6, §7, §8, §9

Lactobacilllus curvatus = assay: as above; conditions: 10^5 cfu/ml
Experimental: as §6, §7, §8, §9

Lactobacillus plantarum [6] = assay: as above; conditions: Lactiplantibacillus plantarum, 10^5 cfu/ml, read-out: MIC calculated to xanthohumol
Experimental: as §6, §7, §8, §9

Lactobacillus plantarum [7] = assay: growth of Lactobacillus plantarum in food products (baby food, pasta sauce); conditions: for Lactobacillus plantarum cell density: xanthohumol 0.004 mg/ml
Experimental: In this example, the influence of xanthohumol on growth of Lactobacillus plantarum in baby food and in pasta sauce was assessed. For this purpose the baby food was sterilized and the pH was adjusted at pH 4.8, and the pasta sauce was sterilized and the pH was adjusted to pH 4.2. At time-point t=0, three samples of both the baby food and the pasta sauce were inoculated with a Lactobacillus plantarum starter culture, at a final Lactobacillus cell density of approximately 1*10^4 cells/ml. For the baby food and the pasta sauce, one sample each was inoculated in the presence of 0.2% by weight xanthohumol composition to a final concentration of xanthohumol in the food product of 0.004 mg/ml. Lactobacillus plantarum cell density was determined in the food products at t=0 and at t=24 hours.

Q: Which results are given for C[C@@H]1OC(=O)[C@H](C)OC1=O [Nr 3: 0.8% Lactide, Lactide]?
A: Shelf life of sausages, Days till 10^7 cfu/g ([1]; inoculated about 10^3 CFU per g, vacuum sealed, stored at 7° C., control 8.0): 12.5 Days; shelf life improvement as compared to the control ([1]; sausages stored at 7° C.): about 4 days

Q: CCC(=O)O [propionate, reference compound] was tested. Which “visible growth of mould hyphae” value (Penicillium roquefortii [2]) did it give?
A: The value was “Growth”.

Q: And the “visible growth of mould hyphae” value (Aspergillus Niger)?
A: Its value is “Growth”.

Q: With COc1cc(O)c(CC=C(C)C)c(O)c1C(=O)/C=C/c1ccc(O)cc1 [xanthohumol] as the compound, how does the “visible growth of mould hyphae” value (Penicillium roquefortii [2]) read?
A: The value was “Growth”.

Q: What about the “visible growth of mould hyphae” value (Aspergillus Niger) of the same compound?
A: Its value is “Growth”.

Q: What about the “Inhibition of A. flavus (outgrowth by OD)” value (Aspergillus flavus) of the same compound?
A: Its value is “inhibiting effect by itself”.

Q: And the “Inhibition of P. roquefortii (outgrowth by OD)” value (Penicillium roquefortii [3])?
A: The value was “inhibiting effect by itself”.

Q: And the “Inhibition of F. oxysporum (outgrowth by OD)” value (Fusarium oxysporum)?
A: The value was “inhibiting effect by itself”.

Q: And the “Inhibition of P. variotii (outgrowth by OD)” value (Paecilomyces variotii)?
A: The value was “inhibiting effect by itself”.

Q: What about the “Inhibition of M plumbeus (outgrowth by OD)” value (Mucor plumbeus) of the same compound?
A: The value was “inhibiting effect by itself”.

Q: What about the MIC [4] of the same compound?
A: The MIC was 2 µg/mL (≈ 5.64 µM).

Q: And the MIC (Lactobacillus brevis; LMG6906, strain LMG 6906, 30° C.)?
A: Its MIC is 2 µg/mL (≈ 5.64 µM).

Q: What about the MIC (Lactobacillus brevis; strain AR043, 30° C.) of the same compound?
A: The MIC was 2 µg/mL (≈ 5.64 µM).

Q: What about the MIC (Lactobacillus farciminis) of the same compound?
A: Its MIC is 4 µg/mL (≈ 11.3 µM).

Q: And the MIC [5]?
A: Its MIC is 10 µg/mL (≈ 28.2 µM).

Q: And the “MIC calculated to xanthohumol” value (Lactobacilllus curvatus; strain AR095, 30° C.)?
A: The value was 10 µg/mL (≈ 28.2 µM).

Q: What about the MIC (Lactobacilllus curvatus; strain Zand 2, 30° C., read-out: MIC calculated to xanthohumol) of the same compound?
A: The MIC was 10 µg/mL (≈ 28.2 µM).

Q: And the MIC (Lactobacillus plantarum [6]; DSM20174, strain DSM 20174, 30° C.)?
A: Its MIC is 4 µg/mL (≈ 11.3 µM).

Q: What about the MIC (Lactobacillus plantarum [6]; strain AR052, 30° C.) of the same compound?
A: Its MIC is 2 µg/mL (≈ 5.64 µM).

Q: What about the “Lactobacillus plantarum cell density” value (Lactobacillus plantarum [7]; baby food pH 4.8, 0 h) of the same compound?
A: The value was 3.8 × 10^4.

Q: And the “Lactobacillus plantarum cell density” value (Lactobacillus plantarum [7]; baby food pH 4.8, 24 h, control 3 × 10^7)?
A: Its value is 3 × 10^4.

Q: What about the “inhibitory effect on Lactobacillus plantarum” value (Lactobacillus plantarum [7]; in baby food and pasta sauce) of the same compound?
A: Its value is “strong inhibitory effect”.

Q: What about the “Lactobacillus plantarum cell density” value (Lactobacillus plantarum [7]; pasta sauce pH 4.2, 0 h) of the same compound?
A: Its value is 3 × 10^4.

Q: And the “Lactobacillus plantarum cell density” value (Lactobacillus plantarum [7]; pasta sauce pH 4.2, 24 h, control 6 × 10^5)?
A: The value was <100.
